Experiments:
[1] = system: TRAP activity in RAW 264.7; assay: Tartrate resistant acid phosphatase (TRAP) solution assay in RANKL-treated RAW 264.7 cells; assay type: cell-based; settings: for inhibition at 10 µM: Mus musculus, RAW264.7, 120 h, 5 days, RANKL 100 ng/mL
Description: 10^3 Raw 264.7 cells were cultured in 96-well plates with 100 ng/mL RANKL (R&D Systems, Minneapolis, Minn.). Cultures were incubated at 37° C. in 5% CO2 for 5 days with the addition of media containing fresh RANKL on day 3. In the TRAP solution assay, enzyme activity was examined by the conversion of α-naphthyl phosphate (4 mmol/liter; Sigma Chemical Co.) to α-naphthol in the presence of a 2 mol/liter L-tartrate solution (Sigma Chemical Co.) in each well. Absorbance was measured at 405 nm using a microplate reader (model 550; Bio-Rad Labs.) (Bandyopadhyay, S. et. el. Biochem. Pharmacol. 2006, 72, 184.).

D1 cells [2] = assay: Osteogenic differentiation, quantification of mineralization (Alizarin red S) in D1 cells; assay type: cell-based, Balb/c mice; settings: 10 μM, osteo-induction medium
Description: (§1) D1-cell, which is a mesenchymal stem cell line cloned from bone marrow cells of Balb/c mice, were purchased from American Type Culture Collection (Rockville, Md.). D1-cells can be induced into osteoblasts, adipocytes and chondrocytes. D1-cells were maintained in DMEM (Gibco BRL, Gaithersburg, Md.) supplemented with 10% FBS, 100 U/ml of penicillin and streptomycin.
(§2) New synthetic compounds were dissolved in DMSO to a final concentration of 10 mM and stored at −20° C. The concentration used was 10 μM and freshly diluted to the medium with a final concentration of DMSO at 0.1%. Control cultures were treated with the same amount of DMSO as used in the corresponding experiments.
(§3) Osteogenic differentiation was induced by culturing cells in an osteo-induction medium (OIM, 10% FBS, 0.1 μM dexamethasone, 10 mM β-glycerophosphate, and L-Ascorbic 2 phosphate 100 μM in low glucose DMEM) for 7-14 days. The extracellular matrix calcification was estimated by using an Alizarin red S stain (Carl, A. et al Anal. Biochem. 2004, 329, 77). The Alizarin red S-stained mineral was quantified by the osteogenesis quantification kit (CHEMICON®).

hADSCs [3] = assay: Cell viability by MTT assay in hADSCs; assay type: cell-based, Human; settings: 10 μM, % of control
Description: (§4) Human adipose tissue derived stem cells (hADSCs), which is derived from adipose tissue, were selected an maintained in a keratinocyte SFM medium (Gibco BRL, Gaithersburg, Md.) supplemented with 5% FBS, 100 U/ml of penicillin and streptomycin.
as §2
(§5) The MTT assay is a calorimetric assay based on the ability of the viable cells to reduce a soluble yellow tetrazolium salt to blue formazan crystals (Carmichael, J. et. el. Cancer Research 1987, 47, 936). After compound treatments, 350 μL of MTT solution ([…] in PBS) were added to each well and incubated for 4 hrs. DMSO was then added for another 0.5 hrs to thoroughly dissolve the dark blue crystals. The absorbance at 570 nm was measured with an ELISA reader. Inhibition of mitochondrial metabolism was shown as relative activity (% of control).

hADSCs [4] = assay: Osteogenic differentiation, quantification of mineralization (Alizarin red S) in hADSCs; assay type: cell-based, Human; settings: 10 μM, osteo-induction medium
Description: as §4, §2, §3

MC3T3E1 cells = assay: Osteogenic differentiation, quantification of mineralization (Alizarin red S) in MC3T3E1 cells; assay type: cell-based, C57BL/6 mice; settings: for Mineralization MC3T3E1 cells (12 days): 10 μM, osteo-induction medium
Description: MC3T3E1 cell, which is a preosteoblast cell line derived from calvaria of C57BL/6 mice, were obtained from the American Type Culture Collection (Rockville, Md.). MC3T3E1 cells were maintained in αMEM (Gibco BRL, Gaithersburg, Md.) supplemented with 10% FBS, 100 U/mL of penicillin and streptomycin.
as §2, §3

D1 cells [5] = assay: Cell viability by MTT assay in D1 cells; assay type: cell-based, Balb/c mice; settings: 10 μM, % of control
Description: as §1, §2, §5

Compound	inhibition at 10 µM [1]	melting point	Mineralization D1 cells (7 days) (D1 cells [2])	Cell viability hADSCs (3 days, MTT) (hADSCs [3])	Mineralization hADSCs (10 days) (hADSCs [4])	Anti-osteoporotic activities compared with compound 5c ([1]; overall statement on Tables 1 and 2 (TRAP inhibition and mineralization))	Mineralization MC3T3E1 cells (12 days) (MC3T3E1 cells)	Cell viability D1 cells (3 days, MTT) (D1 cells [5])	Osteoclast inhibitory activity (inhibition of TRAP activity in RAW 264.7) relative to ipriflavone ([1]; more active than ipriflavone)	Promotion of osteoblast activity (mineralization in MC3T3E1 cells) relative to ipriflavone (MC3T3E1 cells; more active than ipriflavone)
COc1ccc2c(=O)c(-c3ccc(OCC4CO4)cc3)coc2c1 (stereo not drawn) [Compound 3, 7-Methoxy-3-[4-(oxiran-2-ylmethoxy)phenyl]-4H-chromen-4-one]	107%	153 to 154 °C	–	–	–	–	–	–	–	–
COc1ccc(-c2coc3cc(OCC4CO4)ccc3c2=O)cc1OC (stereo not drawn) [Compound 4, 3-(3,4-Dimethoxyphenyl)-7-(oxiran-2-ylmethoxy)-4H-chromen-4-one]	119%	–	112%	84%	429%	comparable anti-osteoporotic activities with that of compound 5c	977%	76%	–	–
COc1ccc2c(=O)c(-c3ccc(OCC(O)CN4CCOCC4)cc3)coc2c1 (stereo not drawn) [Compound 5a, 3-[4-(2-Hydroxy-3-morpholinopropoxy)phenyl]-7-methoxy-4H-chromen-4-one]	0%	117 to 118 °C	–	–	–	–	–	–	–	–
COc1ccc2c(=O)c(-c3ccc(OCC(O)CNC4CC4)cc3)coc2c1 (stereo not drawn) [Compound 5b]	103%	105 to 106 °C	–	–	–	–	–	–	–	–
COc1ccc2c(=O)c(-c3ccc(OCC(O)CNC4CCCCC4)cc3)coc2c1 (stereo not drawn) [Compound 5c, 3-{4-[3-(Cyclohexylamino)-2-hydroxypropoxy]phenyl}-7-methoxy-4H-chromen-4-one]	119%	125 to 126 °C	78%	97%	–	–	976%	82%	4 fold	10 fold
COc1ccc(-c2coc3cc(OCC(O)CN4CCOCC4)ccc3c2=O)cc1OC (stereo not drawn) [Compound 6a, 3-(3,4-Dimethoxyphenyl)-7-(2-hydroxy-3-morpholinopropoxy)-4H-chromen-4-one]	0%	135 to 136 °C	–	–	–	–	–	–	–	–
COc1ccc(-c2coc3cc(OCC(O)CN4CCNCC4)ccc3c2=O)cc1OC (stereo not drawn) [Compound 6b, 3-(3,4-Dimethoxyphenyl)-7-[2-hydroxy-3-(piperazin-1-yl)propoxy]-4H-chromen-4-one]	0%	84 to 85 °C	–	–	–	–	–	–	–	–
COc1ccc(-c2coc3cc(OCC(O)CNC4CCCCC4)ccc3c2=O)cc1OC (stereo not drawn) [Compound 6c, 7-[3-(Cyclohexylamino)-2-hydroxypropoxy]-3-(3,4-dimethoxyphenyl)-4H-chromen-4-one]	120%	70 to 71 °C	–	–	–	–	–	–	–	–
CC(C)Oc1ccc2c(=O)c(-c3ccccc3)coc2c1 [Ipriflavone, reference compound]	31%	–	100%	99%	100%	–	100%	81%	–	–
